Broadly, the IC50 is the concentration at which inhibition is half-maximal.

In one experiment the test system is C6. The experiment is described as follows: Cytotoxicity against rat C6 cells assessed as reduction in cell viability after 72 hrs by MTT assay. The class given is functional, cell-based. To be noted: C6, 72 h.
A further experiment relates to CNE. As to the kind of experiment: Cytotoxicity against human CNE1 cells assessed as reduction in cell viability after 72 hrs by MTT assay. The format is functional, cell-based.
Experiment [1] is described as follows: Cytotoxicity against human NCI-EC1 cells assessed as reduction in cell viability after 72 hrs by MTT assay. The format is functional, cell-based.
Another experiment has as its system MDA-MB-231. As to the kind of experiment: Cytotoxicity against human MDA-MB-231 cells assessed as reduction in cell viability after 72 hrs by MTT assay. The class given is functional, cell-based. The settings on record: MDA-MB-231, 72 h. A general note: Tetrazolium dyes change colour on reduction, which living cells bring about.
In experiment [2] the test system is MCF7. As to the kind of experiment: Cell cycle arrest in human MCF7 cells assessed as accumulation at G1 phase at 10 uM after 72 hrs by propidium iodide staining based flow cytometry (reference value: 66.42%). The format is functional. A general note: Flow cytometry measures light scatter and fluorescence of single cells or particles in a stream.
Experiment [3] relates to MCF7. As to the kind of experiment: Cell cycle arrest in human MCF7 cells assessed as accumulation at G1 phase at 40 uM after 72 hrs by propidium iodide staining based flow cytometry (reference value: 66.42%). The class given is functional.
Experiment [4] relates to MCF7. As to the kind of experiment: Cell cycle arrest in human MCF7 cells assessed as accumulation at G2/M phase at 20 uM after 72 hrs by propidium iodide staining based flow cytometry (reference value: 17.99%). The format is functional.
Experiment [5] concerns MCF7. The experiment is described as follows: Cell cycle arrest in human MCF7 cells assessed as accumulation at S phase at 40 uM after 72 hrs by propidium iodide staining based flow cytometry (reference value: 15.59%). The format is functional.
The subject of experiment [6] is MCF7. As to the kind of experiment: Cell cycle arrest in human MCF7 cells assessed as accumulation at G1 phase at 10 uM after 24 hrs by propidium iodide staining based flow cytometry (reference value: 69.92%). The class given is functional.
Experiment [7] concerns MCF7. As to the kind of experiment: Cell cycle arrest in human MCF7 cells assessed as accumulation at G1 phase at 20 uM after 24 hrs by propidium iodide staining based flow cytometry (reference value: 69.92%). The class given is functional.
For experiment [8], the system named is MCF7. As to the kind of experiment: Induction of apoptosis in human MCF7 cells assessed as live cells at 10 uM after 72 hrs by Annexin-V/PI staining based flow cytometry (reference value: 97.7%). The format is functional.
The test system of experiment [9] is MCF7. The experiment is described as follows: Induction of apoptosis in human MCF7 cells assessed as late apoptotic cells at 20 uM after 72 hrs by Annexin-V/PI staining based flow cytometry (reference value: 0.60%). The class given is functional.
Experiment [10] concerns MCF7. As to the kind of experiment: Induction of apoptosis in human MCF7 cells assessed as necrotic cells at 40 uM after 72 hrs by Annexin-V/PI staining based flow cytometry (reference value: 1.36%). The class given is functional.
Experiment [11] deals with MCF7. As to the kind of experiment: Induction of apoptosis in human MCF7 cells assessed as live cells at 10 uM after 24 hrs by Annexin-V/PI staining based flow cytometry (reference value: 94.88%). The class given is functional.
In experiment [12] the test system is MCF7. As to the kind of experiment: Induction of apoptosis in human MCF7 cells assessed as live cells at 40 uM after 24 hrs by Annexin-V/PI staining based flow cytometry (reference value: 94.88%). The format is functional.
Experiment [13] relates to MCF7. As to the kind of experiment: Induction of apoptosis in human MCF7 cells assessed as necrotic cells at 20 uM after 24 hrs by Annexin-V/PI staining based flow cytometry (reference value: 4.03%). The class given is functional.
The test system of experiment [14] is Quadruplex DNA. The experiment is described as follows: Binding affinity to c-Myc G-quadruplex DNA (unknown origin) at 20 uM incubated for 3 mins by electronic absorption spectra method. The class given is nucleic-acid assay.
The subject of experiment [15] is Quadruplex DNA. As to the kind of experiment: Binding affinity to c-Myc G-quadruplex DNA (unknown origin) assessed as hypochromism at 20 uM incubated for 3 mins by electronic absorption spectra method. The class given is nucleic-acid assay.
For experiment [16], the system named is MCF7. The experiment is described as follows: Cell cycle arrest in human MCF7 cells assessed as accumulation at G2/M phase after 72 hrs by propidium iodide staining based flow cytometry. The class given is functional.

Regarding `CC(=O)OC1OC(=O)C(Br)=C1Nc1ccc(-c2ccc(N)cc2)cc1` (centres undefined), the half-maximal inhibitory concentration (IC50) with C6 worked out at 15.4 µM; with CNE it was 49.4 µM; in experiment [1], 55.1 µM; with MDA-MB-231 it was 33.7 µM. Also, the Activity with MCF7 [2] was 63.91%; in the experiment with MCF7 [3], 44.37%; in the experiment with MCF7 [4], 23.44%; in the experiment on MCF7 [5], 20.5%; in the experiment with MCF7 [6], 66.44%; in the experiment with MCF7 [7] it was 68.3%. Also, the Activity is recorded as 95.8% with MCF7 [8]; 0.67% in the experiment with MCF7 [9]; 4.94% with MCF7 [10]; 96.89% in the experiment on MCF7 [11]; 95.28% with MCF7 [12]; 4.59% in the experiment on MCF7 [13]. The Activity with Quadruplex DNA [15] was 28%; in the experiment on MCF7 [16], “Dose-dependent effect”. The compound also returned a K with Quadruplex DNA [14] of 1.6 ×10⁷ /M.

The values above are taken from ChEMBL document CHEMBL4190316, “Synthesis and biological evaluation of 4-biphenylamino-5-halo-2(5H)-furanones as potential anticancer agents” (Eur J Med Chem, 2017).
